Measured values taken from patent US11866450B2, “Modulators of Cystic Fibrosis Transmembrane Conductance regulator, pharmaceutical compositions, methods of treatment, and process for making the modulators” (priority 2018, dated 2024).

Molecular target: CFTR-mediated chloride transport (Homo sapiens, UniProt P13569)
Assay type: cell-based
Details: enteroid cells incubated with test compound 18-24 hours, acute 10 μM forskolin and 300 nM Compound III; for Max. Activity: % of chloride transport with 3 μM Compound A, 3 μM Compound II and 300 nM acute Compound III triple combination control
Outline: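 Membrane-potential fluorescence AUC over 15 min quantified CFTR chloride transport after acute forskolin (10 μM), IBMX (100 μM) and Compound III (300 nM) in chloride-free buffer. Human enteroid cells were pretreated with compound for 18–24 h; % Activity is relative to 3 μM Compound A + 3 μM Compound II + 300 nM Compound III.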

Chain of CFTR-mediated chloride transport (P13569 whole entry, looked up): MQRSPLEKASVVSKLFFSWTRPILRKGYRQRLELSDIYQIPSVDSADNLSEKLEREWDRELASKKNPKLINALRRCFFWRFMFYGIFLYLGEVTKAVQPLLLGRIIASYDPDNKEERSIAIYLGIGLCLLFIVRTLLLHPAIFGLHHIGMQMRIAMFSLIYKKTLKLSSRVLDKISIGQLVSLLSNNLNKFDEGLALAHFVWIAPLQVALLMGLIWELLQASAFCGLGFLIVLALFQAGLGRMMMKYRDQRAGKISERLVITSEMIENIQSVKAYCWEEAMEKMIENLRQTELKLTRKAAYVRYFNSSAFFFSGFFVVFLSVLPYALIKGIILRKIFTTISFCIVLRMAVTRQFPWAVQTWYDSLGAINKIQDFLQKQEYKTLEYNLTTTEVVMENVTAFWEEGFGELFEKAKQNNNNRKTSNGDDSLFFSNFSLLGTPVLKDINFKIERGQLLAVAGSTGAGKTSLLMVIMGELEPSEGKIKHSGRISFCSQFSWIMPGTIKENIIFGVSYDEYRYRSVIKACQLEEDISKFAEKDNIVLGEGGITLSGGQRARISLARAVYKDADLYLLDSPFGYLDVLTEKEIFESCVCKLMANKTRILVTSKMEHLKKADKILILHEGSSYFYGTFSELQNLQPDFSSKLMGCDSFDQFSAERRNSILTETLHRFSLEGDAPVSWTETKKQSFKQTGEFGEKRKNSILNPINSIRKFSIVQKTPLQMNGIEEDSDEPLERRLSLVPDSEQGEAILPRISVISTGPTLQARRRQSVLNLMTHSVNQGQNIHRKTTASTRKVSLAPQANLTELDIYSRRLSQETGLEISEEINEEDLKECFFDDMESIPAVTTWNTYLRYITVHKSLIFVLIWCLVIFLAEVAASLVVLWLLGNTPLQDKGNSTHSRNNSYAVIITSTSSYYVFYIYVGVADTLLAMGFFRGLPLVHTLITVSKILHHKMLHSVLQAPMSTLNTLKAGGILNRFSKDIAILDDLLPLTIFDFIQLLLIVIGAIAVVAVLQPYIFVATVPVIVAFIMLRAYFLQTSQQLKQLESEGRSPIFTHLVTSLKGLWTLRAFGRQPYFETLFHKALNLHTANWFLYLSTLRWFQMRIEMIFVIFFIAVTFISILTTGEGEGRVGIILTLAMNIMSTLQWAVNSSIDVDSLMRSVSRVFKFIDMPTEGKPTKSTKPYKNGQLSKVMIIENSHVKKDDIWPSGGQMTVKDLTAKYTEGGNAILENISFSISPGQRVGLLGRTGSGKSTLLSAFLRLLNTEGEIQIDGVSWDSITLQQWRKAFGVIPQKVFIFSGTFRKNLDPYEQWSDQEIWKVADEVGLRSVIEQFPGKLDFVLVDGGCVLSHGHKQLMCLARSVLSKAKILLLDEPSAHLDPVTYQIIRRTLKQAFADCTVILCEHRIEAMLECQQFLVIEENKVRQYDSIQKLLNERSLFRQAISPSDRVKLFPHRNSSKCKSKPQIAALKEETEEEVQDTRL

## CN1CCC[C@H]2CN(c3nc(-n4ccc(OCCC5(C(F)(F)F)CC5)n4)ccc3C(=O)NS(=O)(=O)c3cccc1n3)C(C)(C)C2 (single isomer, unassigned) [Compound 139, 12,12,18-trimethyl-8-(3-{2-[1-(trifluoromethyl)cyclopropyl]ethoxy}-1H-pyrazol-1-yl)-2λ^6-thia-3,9,11,18,23-pentaazatetracyclo[17.3.1.111,14.05,10]tetracosa-1(23),5(10),6,8,19,21-hexaene-2,2,4-trione]
  EC50: < 1000 nM
  Max. Activity: +++ (+++ is >60%)

## CC1(C)C[C@@H]2CCCNc3cccc(n3)S(=O)(=O)NC(=O)c3ccc(-n4ccc(OCC[C@@H](O)C5(C(F)(F)F)CC5)n4)nc3N1C2 (single isomer, unassigned) [Compound 296]
  EC50: < 1000 nM
  Max. Activity: +++ (+++ is >60%)

## Cc1c2cnn1CCCC[C@H]1CN(c3nc(-n4ccc(OCCC5(C(F)(F)F)CC5)n4)ccc3C(=O)NS2(=O)=O)C(C)(C)C1 (single isomer, unassigned) [Compound 80, 21,21,23-Trimethyl-4-(3-{2-[1-(trifluoromethyl)cyclopropyl]ethoxy}-1H-pyrazol-1-yl)-10λ^6-thia-1,3,9,13,14-pentaazatetracyclo[17.2.1.111,14.02,7]tricosa-2,4,6,11(23),12-pentaene-8,10,10-trione]
  EC50: > 3000 nM
  Max. Activity: + (+ is <30%)

## CC1(C)C[C@@H]2CCCn3ccc(n3)S(=O)(=O)NC(=O)c3ccc(-n4ccc(OCCC5(C(F)(F)F)CC5)n4)nc3N1C2 [Compound 85, (18S)-20,20-dimethyl-4-(3-{2-[1-(trifluoromethyl)cyclopropyl]ethoxy}-1H-pyrazol-1-yl)-10λ^6-thia-1,3,9,14,22-pentaazatetracyclo[16.2.1.111,14.02,7]docosa-2,4,6,11(22),12-pentaene-8,10,10-trione]
  EC50: < 1000 nM
  Max. Activity: +++ (+++ is >60%)

## CC1(C)C[C@H]2CCNc3cccc(n3)S(=O)(=O)NC(=O)c3ccc(-n4ccc(OCCC(C5CC5)C5CC5)n4)nc3N1C2 (single isomer, unassigned) [Compound 250, 11-[3-(3,3-Dicyclopropylpropoxy)-1H-pyrazol-1-yl]-7,7-dimethyl-17λ^6-thia-2,8,10,16,22-pentaazatetracyclo[16.3.1.15,8.09,14]tricosa-1(22),9,11,13,18,20-hexaene-15,17,17-trione]
  EC50: < 1000 nM
  Max. Activity: ++ (++ is 30-60%)

## CC1(C)C[C@H]2CCCOc3ccc(cc3)S(=O)(=O)NC(=O)c3ccc(-n4ccc(OCCC5(C(F)(F)F)CC5)n4)nc3N1C2 (single isomer, unassigned) [Compound 100, 12,12-dimethyl-8-(3-{2-[1-(trifluoromethyl)cyclopropyl]ethoxy}-1H-pyrazol-1-yl)-18-oxa-2λ^6-thia-3,9,11-triazatetracyclo[17.2.2.111,14.05,10]tetracosa-1(21),5,7,9,19,22-hexaene-2,2,4-trione]
  EC50: > 3000 nM
  Max. Activity: + (+ is <30%)

## CC1(C)C[C@@H]2CCCNc3cccc(n3)S(=O)(=O)NC(=O)c3ccc(-n4ccc(OCC[C@@H](O)C5(C(F)(F)F)CC5)n4)nc3N1C2 (single isomer, unassigned) [Compound 297]
  EC50: < 1000 nM
  Max. Activity: +++ (+++ is >60%)

## CC1(C)C[C@H]2CCCn3ccc(n3)S(=O)(=O)NC(=O)c3ccc(N4CC[C@H](OCCC5(C(F)(F)F)CC5)C4=O)nc3N1C2 (single isomer, unassigned) [Compound 192, 20,20-dimethyl-4-(2-oxo-3-{2-[1-(trifluoromethyl)cyclopropyl]ethoxy}pyrrolidin-1-yl)-10λ^6-thia-1,3,9,14,22-pentaazatetracyclo[16.2.1.111,14.02,7]docosa-2,4,6,11(22),12-pentaene-8,10,10-trione]
  EC50: < 1000 nM
  Max. Activity: +++ (+++ is >60%)

## CC1(C)C[C@H]2CCCNc3cccc(n3)S(=N)(=O)NC(=O)c3ccc(-n4ccc(OCCC5(C(F)(F)F)CC5)n4)nc3N1C2 (single isomer, unassigned) [Compound 266, 2-Imino-12,12-dimethyl-8-(3-{2-[1-(trifluoromethyl)cyclopropyl]ethoxy}-1H-pyrazol-1-yl)-2λ^6-thia-3,9,11,18,23-pentaazatetracyclo[17.3.1.111,14.05,10]tetracosa-1(23),5,7,9,19,21-hexaene-2,4-dione]
  EC50: < 1000 nM
  Max. Activity: ++ (++ is 30-60%)

## Cc1cc2nn1CCC[C@H]1CN(c3nc(-n4ccc(OCCC5(C(F)(F)F)CC5)n4)ccc3C(=O)NS2(=O)=O)C(C)(C)C1 (single isomer, unassigned) [Compound 151, 13,20,20-trimethyl-4-(3-{2-[1-(trifluoromethyl)cyclopropyl]ethoxy}-1H-pyrazol-1-yl)-10λ^6-thia-1,3,9,14,22-pentaazatetracyclo[16.2.1.111,14.02,7]docosa-2,4,6,11(22),12-pentaene-8,10,10-trione]
  EC50: < 1000 nM
  Max. Activity: +++ (+++ is >60%)

## CC1CCC2CN(c3nc(N4CCN(CCC(C)(C)C)C4=O)ccc3C(=O)NS(=O)(=O)c3cccc(n3)N1)C(C)(C)C2 (stereo not drawn) [Compound 210, 8-[3-(3,3-dimethylbutyl)-2-oxoimidazolidin-1-yl]-12,12,17-trimethyl-2λ^6-thia-3,9,11,18,23-pentaazatetracyclo[17.3.1.111,14.05,10]tetracosa-1(22),5,7,9,19(23),20-hexaene-2,2,4-trione]
  EC50: < 1000 nM
  Max. Activity: ++ (++ is 30-60%)

## Cc1nn2cc1S(=O)(=O)NC(=O)c1ccc(-n3ccc(OCC(C)(C)C(F)(F)F)n3)nc1N1C[C@H](CCC2)CC1(C)C (single isomer, unassigned) [Compound 291, 12,20,20-trimethyl-4-[3-(3,3,3-trifluoro-2,2-dimethylpropoxy)-1H-pyrazol-1-yl]-10λ^6-thia-1,3,9,13,14-pentaazatetracyclo[16.2.1.111,14.02,7]docosa-2,4,6,11(22),12-pentaene-8,10,10-trione]
  EC50: < 1000 nM
  Max. Activity: ++ (++ is 30-60%)

## CC1(C)C[C@H]2CCCCc3ccc(cc3)S(=O)(=O)NC(=O)c3ccc(-n4ccc(OCCC5(C(F)(F)F)CC5)n4)nc3N1C2 (single isomer, unassigned) [Compound 55, 12,12-Dimethyl-8-(3-{2-[1-(trifluoromethyl)cyclopropyl]ethoxy}-1H-pyrazol-1-yl)-2λ^6-thia-3,9,11-triazatetracyclo[17.2.2.111,14.05,10]tetracosa-1(21),5,7,9,19,22-hexaene-2,2,4-trione]
  EC50: < 1000 nM
  Max. Activity: +++ (+++ is >60%)

## CC1(C)C[C@H]2CCCCc3cccc(n3)S(=O)(=O)NC(=O)c3ccc(-n4ccc(OCCC5(C(F)(F)F)CC5)n4)nc3N1C2 (single isomer, unassigned) [Compound 87, 12,12-dimethyl-8-(3-{2-[1-(trifluoromethyl)cyclopropyl]ethoxy}-1H-pyrazol-1-yl)-2λ^6-thia-3,9,11,23-tetraazatetracyclo[17.3.1.111,14.05,10]tetracosa-1(23),5,7,9,19,21-hexaene-2,2,4-trione]
  EC50: < 1000 nM
  Max. Activity: +++ (+++ is >60%)

## CC1(C)C[C@@H]2CCCNc3cccc(n3)S(=O)(=O)NC(=O)c3ccc(N4CCN(C[C@H]5CC[C@@H](C(F)(F)F)CC5)C4=O)nc3N1C2 (single isomer, unassigned) [Compound 239]
  EC50: < 1000 nM
  Max. Activity: + (+ is <30%)

## CC1(C)CCC(CN2CCN(c3ccc4c(n3)N3C[C@@H](CCCNc5cccc(n5)S(=O)(=O)NC4=O)CC3(C)C)C2=O)CC1 [Compound 217, (14S)-8-{3-[(4,4-Dimethylcyclohexyl)methyl]-2-oxoimidazolidin-1-yl}-12,12-dimethyl-2λ^6-thia-3,9,11,18,23-pentaazatetracyclo[17.3.1.111,14.05,10]tetracosa-1(22),5,7,9,19(23),20-hexaene-2,2,4-trione]
  EC50: < 1000 nM
  Max. Activity: ++ (++ is 30-60%)

## CC(C)(C)CCCN1CCN(c2ccc3c(n2)N2CC(CCCn4ccc(n4)S(=O)(=O)NC3=O)CC2(C)C)C1=O (stereo not drawn) [Compound 169, 4-[3-(4,4-dimethylpentyl)-2-oxoimidazolidin-1-yl]-20,20-dimethyl-10λ^6-thia-1,3,9,14,22-pentaazatetracyclo[16.2.1.111,14.02,7]docosa-2,4,6,11(22),12-pentaene-8,10,10-trione]
  EC50: < 1000 nM
  Max. Activity: ++ (++ is 30-60%)

## Cc1nn2cc1S(=O)(=O)NC(=O)c1ccc(-n3ccc(OCCC4(C(F)(F)F)CC4)n3)nc1N1C[C@H](CCCC2)CC1(C)C (single isomer, unassigned) [Compound 91, 12,21,21-Trimethyl-4-(3-{2-[1-(trifluoromethyl)cyclopropyl]ethoxy}-1H-pyrazol-1-yl)-10λ^6-thia-1,3,9,13,14-pentaazatetracyclo[17.2.1.111,14.02,7]tricosa-2,4,6,11(23),12-pentaene-8,10,10-trione]
  EC50: > 3000 nM
  Max. Activity: + (+ is <30%)

## CC(C)(C)CCO[C@H]1CCN(c2ccc3c(n2)N2C[C@@H](CCCNc4cccc(n4)S(=O)(=O)NC3=O)CC2(C)C)C1=O (single isomer, unassigned) [Compound 171]
  EC50: < 1000 nM
  Max. Activity: +++ (+++ is >60%)

## CC1(C)C[C@@H]2CCCNc3cccc(n3)S(=O)(=O)NC(=O)c3ccc(-n4ccc(OC[C@@H](O)CC5(C(F)(F)F)CC5)n4)nc3N1C2 (single isomer, unassigned) [Compound 283]
  EC50: < 1000 nM
  Max. Activity: +++ (+++ is >60%)

## CC1(C)C[C@H]2CCCCn3cc(cn3)S(=O)(=O)NC(=O)c3ccc(-n4ccc(OCCC5(C(F)(F)F)CC5)n4)nc3N1C2 (single isomer, unassigned) [Compound 135, 21,21-dimethyl-4-(3-{2-[1-(trifluoromethyl)cyclopropyl]ethoxy}-1H-pyrazol-1-yl)-10λ^6-thia-1,3,9,13,14-pentaazatetracyclo[17.2.1.111,14.02,7]tricosa-2,4,6,11(23),12-pentaene-8,10,10-trione]
  EC50: < 1000 nM
  Max. Activity: +++ (+++ is >60%)
